According to US9802990B2, “Functional peptides for obesity disorders” (DANONE, S.A., priority 2013, dated 2017):
pIC50: −log10 of the molar value. Like-named read-outs stand apart in the source and are kept apart here. Where no end group is shown, it is not given here.

What was measured:
[1] = tested on: C. elegans wild type strain N2; assay: C. elegans body fat reduction, Nile Red staining; format: in vivo, Caenorhabditis elegans; conditions: for % Fluorescence Reduction: nematodes fed NG with peptides alone or in Savia soy fermented product, alone or mixed, 1 μg/mL final concentration, Nile Red; for % Fluorescence Reduction C. elegans: synthesized peptides at 1 μg/mL of final concentration
Method: The ability to reduce body fat content in the nematode C. elegans was analyzed in a group of 5 peptide extracts previously obtained from glycinin (see Table 4). These samples were selected by their high effect on PL and PLA2 in vitro inhibition. Specifically, 5 peptide extracts were selected from the PLA2 inhibition assay (M20G, M5G, M31G, M27G and M29G). Body fat content was analyzed in the C. elegans wild type strain N2 by Red Nile dying of living nematodes. Experiments were carried out with age-synchronized populations, starting from egg-stage to young adult stage (3-day adults). During the experiments, worms were cultured in the NGM agar plates as control condition, NGM with the corresponding peptide extracts (100 μL/plate) and NGM with 6 μg/mL of Orlistat as positive control. Nile Red was added on top of the NG plates already seeded with Escherichia coli OP50 strain to a final concentration of 0.05 μg/ml. After incubation at 20° C., young adult worms (60 worms per condition) were taken to measure the in vivo fluorescence in a VersaFluor™ Fluorometer System. Fluorescence obtained in treated worms was calculated from fluorescence of worms fed in control conditions (reference sample). Experiments were carried out by duplicate.
From these purified fractions, a total of 11 peptides were selected to be synthesized and evaluated in vivo in the obesity model of C. elegans (Table 9). All peptides were evaluated at 1 μg/mL of final concentration.
We selected 5 peptides obtained from hydrolysis of glycinin with strain 6 (P8a, P6a, P14c, P16f, P14b) The peptides from glycinin were added to a soy fermented product (Savia® from Danone) both alone or mixed at final concentration of 1 μg/mL. Nematodes were fed with these products and then total lipids were quantified by Nile Red staining.

[2] = In vitro enzymatic digestion model of the digestive tract (pepsin, pancreatin, bile), HPLC; format: in vitro ADME
Excerpt: An in vitro enzymatic digestion model of an in vivo digestive tract was developed for mimicking the physiological conditions to check and certify that each selected peptide was differently degraded throughout the gastro-intestinal tract by the digestive process. Pepsin, pancreatin and bile concentrations were optimized using a published experimental design (Granado-Lorencio et al (2007). J. Agri. Food. Chem., 55, 6387-6394).

[3] = molecular target: PLA2 (pancreatic phospholipase A2) (Homo sapiens, UniProt P04054); assay: PLA2 inhibition assay by HPLC with DOPC as substrate; format: biochemical
Method: Inhibition of PLA2 enzyme was determined by High Performance Liquid Chromatography (HPLC) using 1,2-dioleoyl-sn-glycero-3-phosphocholine (DOPC) as substrate as described by Singh et al. (A rapid isocratic high-performance liquid chromatography method for determination of cholesterol and 1,2-dioleoyl-sn-glycero-3-phosphocholine. Journal of Chromatography (2005); 1073:347-353). Waters 2695 HPLC with Waters 2996 Photodiode detector Array and a C8 column Hypersil BDS (250×4.6 mm, […]) were used carrying out an eluent isocratic method formed by a mixture of ammonium phosphate buffer 50 mM pH 2.7:methanol (15:85, v/v).

PL (pancreatic lipase) = molecular target: T1, PL (pancreatic lipase) (Sus scrofa, UniProt P00591); assay: PL inhibition assay with 4-methyl umbelliferyl oleate (4MUO), fluorescence; format: biochemical; conditions: synthesized peptides
T1 sequence (P00591 1-450): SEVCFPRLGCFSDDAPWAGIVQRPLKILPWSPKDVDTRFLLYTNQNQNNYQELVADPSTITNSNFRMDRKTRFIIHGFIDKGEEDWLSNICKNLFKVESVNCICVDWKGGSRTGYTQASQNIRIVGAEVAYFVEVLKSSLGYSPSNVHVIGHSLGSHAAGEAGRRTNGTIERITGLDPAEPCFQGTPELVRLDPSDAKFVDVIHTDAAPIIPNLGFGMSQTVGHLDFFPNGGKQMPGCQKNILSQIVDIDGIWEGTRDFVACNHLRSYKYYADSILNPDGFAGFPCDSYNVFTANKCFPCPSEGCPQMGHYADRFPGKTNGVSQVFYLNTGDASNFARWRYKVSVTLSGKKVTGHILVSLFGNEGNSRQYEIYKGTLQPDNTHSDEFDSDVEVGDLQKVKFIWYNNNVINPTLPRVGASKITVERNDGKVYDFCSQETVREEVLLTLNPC
Method: Inhibition of PL was determined using 4-methyl umbelliferyl oleate (4MUO) as substrate as described by Sugiyama et al. (Oligomeric procyanidins in apple polyphenol are main active components for inhibition of pancreatic lipase and triglyceride absorption. J Agric Food Chem (2007); 55: 4604-4609) with some modifications. Aliquots of 25 μl of each peptide extract were incubated with 25 μl of PL solution (1 mg/ml) and preincubated for 10 minutes at 26° C. with stirring of 500 rpm. Reaction was initiated by adding 50 μl of 4MUO (0.1 mM) dissolved in Dulbecco's buffer. After incubation at 26° C. for 20 minutes with constant stirring (500 rpm) the reaction was stopped by adding 100 μl of 0.1 M sodium citrate buffer (pH 4.2). The amount of 4-methyl umbelliferone released by the enzyme was determined by fluorescence. Peptide extracts were used as inhibitors in the enzymatic assay but had to be diluted 1/20 or 1/50 because of the interference between the fluorescence and the buffer containing the peptides.

soy glycinin = assay: Protease activity of LAB strains (supernatant and cells); format: biochemical; conditions: for Protease activity cell: cells; for Protease activity Supernatant: culture supernatant, proteases above 10 KDa concentrated
Excerpt: For the purpose of selecting the most efficient lactic acid bacteria having protease activity against glycinin, different strains of the genera Lactobacillus and Streptococcus were subject to the following hydrolysis assay.
The substrate selected to carry out the process of hydrolysis was soy glycinin. Glycinin is the soy major protein extracted from soy flour after treatment with mercaptoethanol followed by two centrifugation steps as described in Thanh V. H. et al. (Major proteins of soybean seeds: a straightforward fractionation and their characterization. 1976. J Agric Food Chem 24: 1117-1121). Among the enzymatic sources used to degrade glycinin, ten strains were tested: 6 strains from Streptococcus genera (strains 2, 3, 4, 5, 6, 7) and 4 strains from Lactobacillus genera (strains 8, 9, 10 and 11). All these strains were grown in optimal medium (MRS for Lactobacillus strains and BHI for Streptococcus strains) during 17 h at 37° C. and the proteases with a molecular weight above 10 KDa both in supernatant and cells were concentrated to be used as enzymatic sources in glycinin hydrolysis assays. On one hand, proteases from the supernatant were obtained after centrifugation for 15 min at 4000 rpm. Then the supernatant was ultrafiltrated by 10 KDa and the top was resuspended in 2 ml with 50 mM citrate phosphate buffer pH 7. On the other hand, cells obtained from the different cultures were washed with saline solution for 15 min at 4000 rpm and resuspended in 50 mM citrate phosphate buffer pH 7 to evaluate the protease activity in cells and supernatant (Table 1).

PLA2 (pancreatic phospholipase A2), sequence (P04054 23-148, species assumed): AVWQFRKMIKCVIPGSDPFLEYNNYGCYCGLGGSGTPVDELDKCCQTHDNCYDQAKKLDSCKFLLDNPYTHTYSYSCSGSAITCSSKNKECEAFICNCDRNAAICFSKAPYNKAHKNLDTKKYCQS

## CCCCCCCCCCC[C@@H](C[C@@H]1OC(=O)[C@H]1CCCCCC)OC(=O)[C@H](CC(C)C)NC=O [Orlistat, reference compound]
[1]
  % Fluorescence Reduction: 29.5 ± 0.1%

## DEDEDEDEDKPRPSRP (DEDEDEDEDKPRPSRP; listed as Glycine soja) [Peptide P16e]
[1]
  % Fluorescence Reduction C. elegans: 21.86 ± 4%

## DEDEDEDKPRPSRP (DEDEDEDKPRPSRP; listed as Glycine soja) [Peptide P14d]
[1]
  % Fluorescence Reduction C. elegans: 6.26 ± 7.6%

## EEDQPRPDHPPQRP [Peptide P14c, EEDQPRPDHPPQRP]
[1]
  % Fluorescence Reduction: 33.7 ± 5.5%
  % Fluorescence Reduction C. elegans: 39.37 ± 7.08%
[2]; Gastric phase 30 min., read-out: Degradation (%)
  metabolised at 0.5 h: 4.2%
[2]; Gastric phase 120 min., read-out: Degradation (%)
  metabolised at 2 h: 4.6%
[2]; HPLC, completely degraded = at the beginning of the intestinal phase, resistant ones finally degraded at the end
  degradation in the in vitro digestion model (in words): completely degraded
[2]; Intestinal phase 15 min., read-out: Degradation (%)
  metabolised at 0.25 h: 92.9%
[2]; Intestinal phase 30 min., read-out: Degradation (%)
  metabolised at 0.5 h: 93.2%
[2]; Intestinal phase 60 min., read-out: Degradation (%)
  metabolised at 1 h: 95%
[2]; Intestinal phase 120 min., read-out: Degradation (%)
  metabolised at 2 h: 95.5%
[2]; Oral phase 5 min., read-out: Degradation (%)
  metabolised at 5 min: 5.3%
[3]; peptide 0.035 mg/ml
  Percentage of PLA2 inhibition: 20.4 ± 4.4%
[3]; peptide 0.35 mg/ml
  Percentage of PLA2 inhibition: 21.1 ± 4.3%
[3]; peptide 2 mg/ml
  Percentage of PLA2 inhibition: 25.2 ± 4.3%
[3]; peptide 3.5 mg/ml
  Percentage of PLA2 inhibition: 26.1 ± 4.1%
PL (pancreatic lipase)
  pIC50: 4.54

## EEEGGSVLSG [Peptide P10b, EEEGGSVLSG]
[1]
  % Fluorescence Reduction C. elegans: 33.48 ± 6.1%
[3]; peptide 0.035 mg/ml
  Percentage of PLA2 inhibition: 7.8 ± 5.6%
[3]; peptide 0.35 mg/ml
  Percentage of PLA2 inhibition: 13.9 ± 3.3%
[3]; peptide 2 mg/ml
  Percentage of PLA2 inhibition: 26.1 ± 5.9%
[3]; peptide 3.5 mg/ml
  Percentage of PLA2 inhibition: 26.9 ± 2.5%
PL (pancreatic lipase)
  pIC50: 4.44

## GKREQDEDEDEDEDKPRPSRP (GKREQDEDEDEDEDKPRPSRP; listed as Glycine soja) [Peptide P21b]
[1]
  % Fluorescence Reduction C. elegans: 24.91 ± 7.1%

## HQQEEENEGGSILSG (HQQEEENEGGSILSG; listed as Glycine soja) [Peptide P15a]
[1]
  % Fluorescence Reduction C. elegans: 22.82 ± 6.1%

## Lactobacillus delbrueckii lactis CNCM I-4280 [Strain 8]
Soy glycinin
  Protease activity cell: 0.009 U.I./ml
  Protease activity Supernatant: 0.028 U.I./ml

## Lactobacillus helveticus CNCM I-4279 [Strain 9]
Soy glycinin
  Protease activity cell: 0.012 U.I./ml
  Protease activity Supernatant: 0.010 U.I./ml

## Lactobacillus paracasei paracasei CNCM I-1518 [Strain 11]
Soy glycinin
  Protease activity cell: 0.006 U.I./ml
  Protease activity Supernatant: 0.029 U.I./ml
